In patent US5281602A, “Angiotensin II receptor blocking 2,3,6-substituted 5,6,7,8-tetrahydro-pyrido[4,3-D]pyrimidin-4(3H)-ones” (American Cyanamid Company, priority 1993, dated 1994):
pIC50: −log10 of the molar value. Several values for one entry are separate records, joined by “and”; a condition that tells them apart may be missing. Equal values may be shown once.

Experiments:
[1] = tested on: ANGIOTENSIN II (A11) VASOPRESSOR RESPONSE; test: AII Challenge: blockade of angiotensin II vasopressor response in conscious SHR; type: in vivo, rat (Conscious Male Okamoto-Aoki SHR); settings: for Change (single reading, systolic blood pressure) / Response After A11 (systolic blood pressure) / Control Before A11 (systolic blood pressure): 15 mg/kg
Text: By administering a compound of this invention to a rat, and then challenging with angiotensin II, a blockage of the vasopressor response is realized.
Conscious Male Okamoto-Aoki SHR, 16-20 weeks old, weighing approximately 330 g are purchased from Charles River Labs (Wilmington, Mass.). Conscious rats are restrained in a supine position with elastic tape. The area at the base of the tail is locally anesthetized by subcutaneous infiltration with 2% procaine. The ventral caudal artery and vein are isolated, and a cannula made of polyethylene (PE) 10-20 tubing (fused together by heat) is passed into the lower abdominal aorta and vena cava, respectively. The cannula is secured, heparinized (1,000 I.U./ml), sealed and the wound is closed. The animals are placed in plastic restraining cages in an upright position. The cannula is attached to a Statham P23Db pressure transducer, and pulsatile blood pressure is recorded to 10-15 minutes with a Gould Brush recorder. (Chan et al., (Drug Development Res., 18:75-94, 1989).
Angiotensin II (human sequence, Sigma Chem. Co., St. Louis, Mo.) of 0.05 and 0.1 ug/kg i.v. is injected into all rats (predosing response). Then a test compound, vehicle or a known angiotensin II antagonist is administered i.v., i.p. or orally to each set of rats. […] The vasopressor response of angiotensin II is measured for the increase in systolic blood pressure in mmHg. The percentage of antagonism or blockade of the vasopressor response of angiotensin II by a compound is calculated using the vasopressor response (increase in systolic blood pressure) of angiotensin II of each rat predosing the compound as 100%. A compound is considered active if at 30 mg/kg i.v. it antagonized at least 50% of the response.

Angiotension II Receptor = test: Receptor Binding Assay: competition with [^125 I] (Sar^1,Ile^8) AngII on microsomal membranes; settings: pH 7.4, 60 min, room temperature
Method: Binding of [^125 I] (Sar^1,Ile^8) AngII
The binding of [^125 I] (Sar^1,Ile^8) AngII to microsomal membranes is initiated by the addition of reconstituted membranes (1:10 vols.) in freshly made 50.0 mMTris.HCl buffer, pH 7.4 containing 0.25% heat inactivated bovine serum albumin (BSA):80 ul membrane protein (10 to 20 ug/assay) to wells already containing 100 ul of incubation buffer (as described above) and 20 ul [^125 I] (Sar^1,Ile^8) AngII (Specific Activity, 2200 Ci/mmole). Non-specific binding is measured in the presence of 1.0 uM unlabeled (Sar^1,Ile^8) AngII, added in 20 ul volume. Specific binding for [^125 I] (Sar^1,Ile^8) AngII is greater than 90%. In competition studies, experimental compounds are diluted in dimethylsulfoxide (DMSO) and added in 20 ul to wells before the introduction of tissue membranes. This concentration of DMSO is found to have no negative effects on the binding of [^125 I] (Sar^1,Ile^8) AngII to the membranes. Assays are performed in triplicate. […] Presoaking the filter sheet in 0.1% polyethylenemine in normal saline (PEI/Saline) greatly reduces the radioactivity retained by the filter blanks. […] The filters are removed from the filter grid and counted in a Parkard® Cobra Gamma Counter for 1 min. […] The binding data are analyzed by the non-linear interactive "LUNDON-1" program (LUNDON SOFTWARE Inc., Cleveland, Ohio U.S.A.). […]

[2] = 15 mg/kg IV (single), AII 0.05 mcg/kg IV, 120 min post dose
[3] = 15 mg/kg IV (single), AII 0.05 mcg/kg IV, 180 min post dose
[4] = 15 mg/kg IV (single), AII 0.1 mcg/kg IV, 120 min post dose
[5] = 15 mg/kg IV (single), AII 0.1 mcg/kg IV, 180 min post dose
[6] = 15 mg/kg IV, AII 0.05 mcg/kg IV, 30 min post dose
[7] = 15 mg/kg IV, AII 0.05 mcg/kg IV, 60 min post dose
[8] = 15 mg/kg IV, AII 0.05 mcg/kg IV, 90 min post dose
[9] = 15 mg/kg IV, AII 0.1 mcg/kg IV, 30 min post dose
[10] = 15 mg/kg IV, AII 0.1 mcg/kg IV, 60 min post dose
[11] = 15 mg/kg IV, AII 0.1 mcg/kg IV, 90 min post dose

pIC50 (Angiotension II Receptor): 6.22
SMILES: CCCCc1nc2c(c(=O)n1Cc1ccc(-c3ccccc3-c3nnn[nH]3)cc1)CN(C(=O)C(C)(C)O)CC2 [Example 16]
Average % Inhibition (angiotensin blockage) of AII vasopressor response [1, 2]: 39%
Average Change (systolic blood pressure response to AII) [1, 2]: 27.5 mmHg
Change (single reading, systolic blood pressure) [1, 2]: 35 mmHg and 20 mmHg
Average % Inhibition (angiotensin blockage) of AII vasopressor response [1, 3]: 6%
Average Change (systolic blood pressure response to AII) [1, 3]: 42.5 mmHg
Change (single reading, systolic blood pressure) [1, 3]: 55 mmHg and 30 mmHg
Average % Inhibition (angiotensin blockage) of AII vasopressor response [1, 4]: 35%
Average Change (systolic blood pressure response to AII) [1, 4]: 32.5 mmHg
Change (single reading, systolic blood pressure) [1, 4]: 40 mmHg and 25 mmHg
Average % Inhibition (angiotensin blockage) of AII vasopressor response [1, 5]: 5%
Average Change (systolic blood pressure response to AII) [1, 5]: 47.5 mmHg
Change (single reading, systolic blood pressure) [1, 5]: 50 mmHg and 45 mmHg
Response After A11 (systolic blood pressure) ([1]; 15 mg/kg IV (single), after AII 0.05 mcg/kg IV, 120 min post dose): 245 mmHg and 195 mmHg
Response After A11 (systolic blood pressure) ([1]; 15 mg/kg IV (single), after AII 0.05 mcg/kg IV, 180 min post dose): 230 mmHg and 195 mmHg
Response After A11 (systolic blood pressure) ([1]; 15 mg/kg IV (single), after AII 0.1 mcg/kg IV, 120 min post dose): 240 mmHg and 200 mmHg
Response After A11 (systolic blood pressure) ([1]; 15 mg/kg IV (single), after AII 0.1 mcg/kg IV, 180 min post dose): 260 mmHg and 210 mmHg
Control Before A11 (systolic blood pressure) ([1]; 15 mg/kg IV (single), before AII 0.05 mcg/kg IV, 120 min post dose): 210 mmHg and 175 mmHg
Control Before A11 (systolic blood pressure) ([1]; 15 mg/kg IV (single), before AII 0.05 mcg/kg IV, 180 min post dose): 175 mmHg and 165 mmHg
Control Before A11 (systolic blood pressure) ([1]; 15 mg/kg IV (single), before AII 0.1 mcg/kg IV, 120 min post dose): 200 mmHg and 175 mmHg
Control Before A11 (systolic blood pressure) ([1]; 15 mg/kg IV (single), before AII 0.1 mcg/kg IV, 180 min post dose): 210 mmHg and 165 mmHg
Average % Inhibition (angiotensin blockage) of AII vasopressor response [1, 6]: 72%
Average Change (systolic blood pressure response to AII) [1, 6]: 12.5 mmHg
Change (single reading, systolic blood pressure) [1, 6]: 15 mmHg and 10 mmHg
Average % Inhibition (angiotensin blockage) of AII vasopressor response [1, 7]: 67%
Average Change (systolic blood pressure response to AII) [1, 7]: 15 mmHg
Average % Inhibition (angiotensin blockage) of AII vasopressor response [1, 8]: 37%
Average Change (systolic blood pressure response to AII) [1, 8]: 28.5 mmHg
Average % Inhibition (angiotensin blockage) of AII vasopressor response [1, 9]: 85%
Average Change (systolic blood pressure response to AII) [1, 9]: 7.5 mmHg
Change (single reading, systolic blood pressure) [1, 9]: 10 mmHg and 5 mmHg
Average % Inhibition (angiotensin blockage) of AII vasopressor response [1, 10]: 57%
Average Change (systolic blood pressure response to AII) [1, 10]: 21.5 mmHg
Average % Inhibition (angiotensin blockage) of AII vasopressor response [1, 11]: 33%
Average Change (systolic blood pressure response to AII) [1, 11]: 33.5 mmHg
Change (single reading, systolic blood pressure) [1, 11]: 42 mmHg and 25 mmHg
Response After A11 (systolic blood pressure) ([1]; 15 mg/kg IV, after AII 0.05 mcg/kg IV, 30 min post dose): 210 mmHg and 185 mmHg
Response After A11 (systolic blood pressure) ([1]; 15 mg/kg IV, after AII 0.05 mcg/kg IV, 60 min post dose): 215 mmHg and 190 mmHg
Response After A11 (systolic blood pressure) ([1]; 15 mg/kg IV, after AII 0.05 mcg/kg IV, 90 min post dose): 225 mmHg and 190 mmHg
Response After A11 (systolic blood pressure) ([1]; 15 mg/kg IV, after AII 0.1 mcg/kg IV, 30 min post dose): 205 mmHg and 180 mmHg
Response After A11 (systolic blood pressure) ([1]; 15 mg/kg IV, after AII 0.1 mcg/kg IV, 60 min post dose): 220 mmHg and 188 mmHg
Response After A11 (systolic blood pressure) ([1]; 15 mg/kg IV, after AII 0.1 mcg/kg IV, 90 min post dose): 230 mmHg and 195 mmHg
Control Before A11 (systolic blood pressure) ([1]; 15 mg/kg IV, before AII 0.05 mcg/kg IV, 30 min post dose): 195 mmHg and 175 mmHg
Control Before A11 (systolic blood pressure) ([1]; 15 mg/kg IV, before AII 0.05 mcg/kg IV, 60 min post dose): 190 mmHg and 185 mmHg
Control Before A11 (systolic blood pressure) ([1]; 15 mg/kg IV, before AII 0.05 mcg/kg IV, 90 min post dose): 183 mmHg and 175 mmHg
Control Before A11 (systolic blood pressure) ([1]; 15 mg/kg IV, before AII 0.1 mcg/kg IV, 30 min post dose): 195 mmHg and 175 mmHg
Control Before A11 (systolic blood pressure) ([1]; 15 mg/kg IV, before AII 0.1 mcg/kg IV, 60 min post dose): 190 mmHg and 175 mmHg
Control Before A11 (systolic blood pressure) ([1]; 15 mg/kg IV, before AII 0.1 mcg/kg IV, 90 min post dose): 188 mmHg and 170 mmHg
